Test results as given in publication PMC10094136, “Neurog1-Derived Peptides RMNE1 and DualPep-Shine Penetrate the Skin and Inhibit Melanin Synthesis by Regulating MITF Transcription” (International Journal of Molecular Sciences, 2023).
Where a SMILES comes first, the peptide text is derived from it.

How the values were obtained:
B16F10 cells [1] = assay: Localization of penetrated peptide by confocal microscopy; type: cell-based; details: B16F10, FITC-conjugated peptide, 2 h, Hoechst 33342 nucleus staining
Description: Figure 3 DualPep-Shine regulates the expression of melanogenic genes and inhibits the promoter activity of MITF-M. (A) B16F10 cells were treated with various concentrations of DualPep-Shine for 72 h. Melanin contents were determined at OD 405 nm. (B) DualPep-Shine was treated with α-MSH for 24 h, and whole-cell lysates were subjected to Western blotting. Indicated antibodies were used to analyze melanogenic proteins. (C) mRNA levels of MITF, Tyr, TRP1, and TRP2 were analyzed using quantitative polymerase chain reaction (qPCR) after treatment with DualPep-Shine for 12 h. The gene expression was normalized with β-actin. (D) FITC-conjugated DualPep-Shine was treated for 2 h on B16F10 cells, and its localization was visualized using confocal microscopy. Hoechst 33342 was used for nucleus staining. Bar = 10 μm. […] The results are presented as mean ± SD, and statistical significance was analyzed with Student’s t-test (** p < 0.01, *** p < 0.001).
B16F10 cells were seeded in a 24-well plate and treated with 2.5 μM of FITC conjugated TAT, RMNE1, or DualPep-Shine for 2 h. […] Penetrated peptides were evaluated via flow cytometry by measuring FITC levels. […] The cells were washed again with PBS five times, mounted on a slide glass using gel/mount solution (Biomeda, Foster City, CA, USA), and the penetrated peptides were visualized using a fluorescence microscope. […]

B16F10 cells [2] = assay: Cell viability CCK-8 assay, B16F10; type: cell-based; details: B16F10, up to highest concentration, 72 h (legend; method says 24 h), CCK8
Description: (§1) (A) B16F10 and HaCaT cells were treated with the indicated concentration of DualPep-Shine for 72 h, and relative cell viability was measured using Cell Counting Kit 8 (CCK8) assay. Doxorubicin was used for positive control. (B) Phorbol 12-myristate 13-acetate (PMA)-differentiated THP-1 cells were treated with different concentrations of DualPep-Shine for 24 h. TNF-α from supernatants was measured using the enzyme-linked immunosorbent assay (ELISA). (C) DualPep-Shine was incubated with indicated temperature conditions for 45 days. B16F10 cells were treated with different concentrations for 72 h, and melanin contents were measured at OD 405 nm. The results are presented as mean ± SD, and statistical significance was analyzed with Student’s t-test (NS: not significant, *** p < 0.001).
(§2) Cell viability was measured using a CCK-8 assay (Dojindo, Tokyo, Japan). HaCaT and B16F10 cells were cultured in a 96-well plate at a 6 × 10^3 cells/well and incubated in a complete medium at 37 °C with 5% CO2 overnight. Each cell type was treated with different concentrations of peptides for 24 h. After removing the medium, CCK-8 solution was added in a dark room at 37 °C. Absorbance was measured at 450 nm using a microplate reader.

[3] = Storage stability of peptide, read out as anti-melanin activity in B16F10 cells; type: physicochemical; details: peptide stored at −20 °C, 25 °C and 37 °C for 45 days; then B16F10 72 h, melanin at OD 405 nm
Description: as §1
B16F10 cells (1 × 10^5) were seeded in a 24-well plate and incubated for 16 h. The cells were treated with α-MSH (Sigma-Aldrich, Darmstadt, Germany) and peptides for 72 h. The cells were incubated at 37 °C in 5% CO2. […] Then, melanin levels were determined by measuring the absorbance at 405 nm using a microplate reader. […] B16F10 cells were then treated with different concentrations of peptides, and melanin contents were measured to check the stability of DualPep-Shine.

THP-1 cells = assay: TNF-α secretion ELISA in PMA-differentiated THP-1 cells (immunogenicity); type: cell-based; details: PMA-differentiated THP-1, up to 100 μM, 24 h
Description: as §1

HaCaT cells = assay: Cell viability CCK-8 assay, HaCaT; type: cell-based; details: up to highest concentration, 72 h (legend; method says 24 h), CCK8
Description: as §1, §2

Intracellular localization (B16F10 cells [1]): mainly localized in the nucleus
Anti-pigmentation activity after pre-incubation (stability) [3]: maintained
SMILES: C[C@@H](O)[C@H](NC(=O)[C@H](CCCNC(=N)N)NC(=O)CNC(=O)[C@H](CCCNC(=N)N)NC(=O)[C@H](CCCNC(=N)N)NC(=O)[C@H](CCCNC(=N)N)NC(=O)[C@H](CCCNC(=N)N)NC(=O)[C@H](CCCNC(=N)N)NC(=O)[C@H](CCC(=O)O)NC(=O)[C@H](CCC(N)=O)NC(=O)[C@H](CCC(=O)O)NC(=O)[C@@H](N)CC(=O)O)C(=O)N[C@@H](CCCNC(=N)N)C(=O)O [DualPep-Shine] (H-DEQERRRRRGRTR-OH)
Cell viability (B16F10 cells [2]): not affected
TNF-α secretion (immunogenicity) (THP-1 cells): did not induce tumor necrosis factor α (TNF-α) secretion
Cell viability (HaCaT cells): not affected
